Reference: PMC10227015, “From a drug repositioning to a structure-based drug design approach to tackle acute lymphoblastic leukemia” (Nature Communications, 2023)

Assays:
[1] = system: NOD-SCID-IL2Rγc null (NSG) mice; test: In vivo toxicity in NSG mice, 2 weeks, with and without dT; settings: mouse models, 80 mg/kg twice/day
Description: To evaluate the in vivo toxicity selected compounds were injected by intraperitoneal (IP) route to 7 weeks-old male Swiss mice (n = 2) at 10, 20, 40, 50, or 80 mg/kg by unique injection. […] Compounds were administered in their hydrochloride salt forms. Mice were then observed closely for the next one hour, then every hour for 8 h. Observations were continued for 72 h for signs of pain or toxicity such as change in the behavior and in the activity in the cage (decreased locomotion) or change in the appearance (curved back, eyes half-closed, bristle hair, hips hollowed out). In vivo toxicity of compound OR0642 at 40 and 80 mg/kg was also assessed in the NOD-SCID-IL2Rγc null (NSG) mice model for 2 weeks in the presence and absence of dT to confirm the safety of the compound. […]. Blood samples were collected and spun at 10,000 × g prior to collecting the plasma supernatants. All plasma samples were frozen at −80 °C before sample processing. 13 μl of each plasma sample was mixed with 33 μl of acetonitrile to precipitate proteins and extract the compound. […] Supernatants were transferred to a microplate to be analyzed by LC–MS/MS. All samples were analyzed with a UHPLC coupled to a Shimadzu LC-MS 8030 triple quadrupole. The solutions of a standard range, prepared with plasma from untreated mice, were analyzed in the same series of injections.

PDX UPNT525 = test: Ex vivo testing on PDX samples (viability, flow cytometry, 72 h); type: cell-based, human
Source text: (§1) Bone marrow-infiltrating blasts from terminally mice bearing PDX as stated above were collected as established before. Extensive analysis (immunophenotype and molecular analysis) of matched primary and PDX samples used in the study are shown in Supplementary Table 7, showing that they remain stable. Briefly, after euthanasia, bone marrows from tibiae, hips, femurs, and vertebrae were isolated and blasts collected for subsequent ex vivo experiments. All samples used contained ≥90% blasts as determined by flow cytometry. For the cytotoxic evaluation of OR0642, blasts were then stained with CellTraceTM Violet (CTV, Thermo Fisher Scientific, C34557) prior seeding at 10,000 cells into 96-well plates under normal conditions or pre-plated with OP9-DL1 cells. Cells were cultured in RPMI 1640 supplemented with 20% fetal bovine serum, 50 µg/ml streptomycin, 50 UI penicillin, 4 mM L-glutamine, and a cocktail of human cytokines as previously established (50 ng/ml human stem cell factor, 20 ng/ml hFLT3-L, 10 ng/ml hIL-7 and 20 nM insulin (Miltenyi Biotec))[28]. […] Rescue by dC supplementation (1 µM) was also evaluated. OR0642 was then tested alone, or combined with dT or dT + dC at two concentrations (0.25 and 0.5 µM). Cell viability was evaluated by flow cytometry 72 h post-treatment. Proliferation indexes were calculated using the detection of CTV in the control replicates (DMSO) and the proliferation modeling tool of FlowJo™ Software 10.7.1 (BD Life Sciences). A control peak of undivided CTV-stained cells was systematically used to set the undivided fraction.

PDX UPNT885 = test: as above; type: cell-based, human
Source text: as §1

PDX UPNT380 = test: as above; type: cell-based, human
Source text: as §1

PDX UPNTAGG = test: as above; type: cell-based, human
Source text: as §1

PDX UPNT775 = test: as above; type: cell-based, human
Source text: as §1

PDX UPNT489 = test: as above; type: cell-based, human
Source text: as §1

PDX UPNT615 = test: as above; type: cell-based, human
Source text: as §1

PDX UPNT486 = test: as above; type: cell-based, human
Source text: as §1

For `CCCN(c1nc(-c2nc(N)cc(N)n2)cs1)c1cc(-c2ccc(S(=O)(=O)N3CCN(C)CC3)cc2C(F)(F)F)ccc1C` [OR0642], the in vivo tolerance [1] was “well tolerated”.

Work on `Cc1cn([C@H]2C[C@H](O)[C@@H](CO)O2)c(=O)[nH]c1=O` [dT, thymidine] yielded a viability at 37 µM (PDX UPNT525; Homo sapiens, UPNT525, dT 37 µM, read-out: Cell viability, Mean (% viab)) of 99.5%, a viability at 111 µM (PDX UPNT525; Homo sapiens, UPNT525, dT 111 µM, read-out: Cell viability, Mean (% viab)) of 67.8% and a viability at 333 µM (PDX UPNT525; Homo sapiens, UPNT525, dT 333 µM, read-out: Cell viability, Mean (% viab)) of 44.3%. The viability at 1000 µM (PDX UPNT525; Homo sapiens, UPNT525, dT 1000 µM, read-out: Cell viability, Mean (% viab)) was 30.6%, the viability at 3000 µM (PDX UPNT525; Homo sapiens, UPNT525, dT 3000 µM, read-out: Cell viability, Mean (% viab)) was 24.9% and the “Response at dT100 µM” value (PDX UPNT525; PDX 525, dT 100 µM) was 44. For the same molecule, the viability at 12 µM (PDX UPNT885; Homo sapiens, UPNT885, dT 12 µM, read-out: Cell viability, Mean (% viab)) was 100%, the viability at 37 µM (PDX UPNT885; Homo sapiens, UPNT885, dT 37 µM, read-out: Cell viability, Mean (% viab)) was 85.3% and the viability at 111 µM (PDX UPNT885; Homo sapiens, UPNT885, dT 111 µM, read-out: Cell viability, Mean (% viab)) was 65.1%. It also gave a viability at 333 µM (PDX UPNT885; Homo sapiens, UPNT885, dT 333 µM, read-out: Cell viability, Mean (% viab)) of 49.5%, a viability at 1000 µM (PDX UPNT885; Homo sapiens, UPNT885, dT 1000 µM, read-out: Cell viability, Mean (% viab)) of 44.3% and a viability at 3000 µM (PDX UPNT885; Homo sapiens, UPNT885, dT 3000 µM, read-out: Cell viability, Mean (% viab)) of 39.5%. The “Response at dT100 µM” value (PDX UPNT885; PDX 885, dT 100 µM) was 49, the viability at 12 µM (PDX UPNT380; Homo sapiens, UPNT380, dT 12 µM, read-out: Cell viability, Mean (% viab)) was 100% and the viability at 37 µM (PDX UPNT380; Homo sapiens, UPNT380, dT 37 µM, read-out: Cell viability, Mean (% viab)) was 85.4%. For the same molecule, the viability at 111 µM (PDX UPNT380; Homo sapiens, UPNT380, dT 111 µM, read-out: Cell viability, Mean (% viab)) was 79.4%, the viability at 333 µM (PDX UPNT380; Homo sapiens, UPNT380, dT 333 µM, read-out: Cell viability, Mean (% viab)) was 76.9% and the viability at 1000 µM (PDX UPNT380; Homo sapiens, UPNT380, dT 1000 µM, read-out: Cell viability, Mean (% viab)) was 70.3%. The viability at 3000 µM (PDX UPNT380; Homo sapiens, UPNT380, dT 3000 µM, read-out: Cell viability, Mean (% viab)) was 67.7%, the “Response at dT100 µM” value (PDX UPNT380; PDX 380, dT 100 µM) was 27 and the viability at 12 µM (PDX UPNTAGG; Homo sapiens, UPNTAGG, dT 12 µM, read-out: Cell viability, Mean (% viab)) was 100%. It also gave a viability at 37 µM (PDX UPNTAGG; Homo sapiens, UPNTAGG, dT 37 µM, read-out: Cell viability, Mean (% viab)) of 87.6%, a viability at 111 µM (PDX UPNTAGG; Homo sapiens, UPNTAGG, dT 111 µM, read-out: Cell viability, Mean (% viab)) of 82.2% and a viability at 333 µM (PDX UPNTAGG; Homo sapiens, UPNTAGG, dT 333 µM, read-out: Cell viability, Mean (% viab)) of 73.3%. For the same molecule, the viability at 1000 µM (PDX UPNTAGG; Homo sapiens, UPNTAGG, dT 1000 µM, read-out: Cell viability, Mean (% viab)) was 65.7%, the viability at 3000 µM (PDX UPNTAGG; Homo sapiens, UPNTAGG, dT 3000 µM, read-out: Cell viability, Mean (% viab)) was 58.6% and the “Response at dT100 µM” value (PDX UPNTAGG; PDX AGG, dT 100 µM) was 38. For the same molecule, the viability at 12 µM (PDX UPNT775; Homo sapiens, UPNT775, dT 12 µM, read-out: Cell viability, Mean (% viab)) was 100%, the viability at 37 µM (PDX UPNT775; Homo sapiens, UPNT775, dT 37 µM, read-out: Cell viability, Mean (% viab)) was 86.3% and the viability at 111 µM (PDX UPNT775; Homo sapiens, UPNT775, dT 111 µM, read-out: Cell viability, Mean (% viab)) was 53.9%. For the same molecule, the viability at 333 µM (PDX UPNT775; Homo sapiens, UPNT775, dT 333 µM, read-out: Cell viability, Mean (% viab)) was 40.5%, the viability at 1000 µM (PDX UPNT775; Homo sapiens, UPNT775, dT 1000 µM, read-out: Cell viability, Mean (% viab)) was 36% and the viability at 3000 µM (PDX UPNT775; Homo sapiens, UPNT775, dT 3000 µM, read-out: Cell viability, Mean (% viab)) was 36.7%. For the same molecule, the “Response at dT100 µM” value (PDX UPNT775; PDX 775, dT 100 µM) was 63, the viability at 12 µM (PDX UPNT489; Homo sapiens, UPNT489, dT 12 µM, read-out: Cell viability, Mean (% viab)) was 100% and the viability at 37 µM (PDX UPNT489; Homo sapiens, UPNT489, dT 37 µM, read-out: Cell viability, Mean (% viab)) was 94.6%. For the same molecule, the viability at 111 µM (PDX UPNT489; Homo sapiens, UPNT489, dT 111 µM, read-out: Cell viability, Mean (% viab)) was 87%, the viability at 333 µM (PDX UPNT489; Homo sapiens, UPNT489, dT 333 µM, read-out: Cell viability, Mean (% viab)) was 78.3% and the viability at 1000 µM (PDX UPNT489; Homo sapiens, UPNT489, dT 1000 µM, read-out: Cell viability, Mean (% viab)) was 71.4%. For the same molecule, the viability at 3000 µM (PDX UPNT489; Homo sapiens, UPNT489, dT 3000 µM, read-out: Cell viability, Mean (% viab)) was 66.9%, the “Response at dT100 µM” value (PDX UPNT489; PDX 489, dT 100 µM) was 39 and the viability at 12 µM (PDX UPNT615; Homo sapiens, UPNT615, dT 12 µM, read-out: Cell viability, Mean (% viab)) was 100%. The viability at 37 µM (PDX UPNT615; Homo sapiens, UPNT615, dT 37 µM, read-out: Cell viability, Mean (% viab)) was 84.7%, the viability at 111 µM (PDX UPNT615; Homo sapiens, UPNT615, dT 111 µM, read-out: Cell viability, Mean (% viab)) was 78.6% and the viability at 333 µM (PDX UPNT615; Homo sapiens, UPNT615, dT 333 µM, read-out: Cell viability, Mean (% viab)) was 73.6%. For the same molecule, the viability at 1000 µM (PDX UPNT615; Homo sapiens, UPNT615, dT 1000 µM, read-out: Cell viability, Mean (% viab)) was 67.2%, the viability at 3000 µM (PDX UPNT615; Homo sapiens, UPNT615, dT 3000 µM, read-out: Cell viability, Mean (% viab)) was 66.7% and the “Response at dT100 µM” value (PDX UPNT615; PDX 615, dT 100 µM) was 31. The viability at 12 µM (PDX UPNT486; Homo sapiens, UPNT486, dT 12 µM, read-out: Cell viability, Mean (% viab)) was 99.7%, the viability at 37 µM (PDX UPNT486; Homo sapiens, UPNT486, dT 37 µM, read-out: Cell viability, Mean (% viab)) was 95% and the viability at 111 µM (PDX UPNT486; Homo sapiens, UPNT486, dT 111 µM, read-out: Cell viability, Mean (% viab)) was 90.6%. It also gave a viability at 333 µM (PDX UPNT486; Homo sapiens, UPNT486, dT 333 µM, read-out: Cell viability, Mean (% viab)) of 100%, a viability at 1000 µM (PDX UPNT486; Homo sapiens, UPNT486, dT 1000 µM, read-out: Cell viability, Mean (% viab)) of 90.2% and a viability at 3000 µM (PDX UPNT486; Homo sapiens, UPNT486, dT 3000 µM, read-out: Cell viability, Mean (% viab)) of 77.6%. The “Response at dT100 µM” value (PDX UPNT486; PDX 486, dT 100 µM) was 31.
